Experimental data as given in US20240327423A1, “A SERIES OF PYRROLE DERIVATIVES AND THEIR PREPARATION METHOD AND THERAPEUTIC USE” (SHENZHEN SUNGENING BIO-MEDICAL CO., LTD, priority 2020, published 2024).
Values after ≈ are worked out from the molar mass of the structure shown.

How the values were obtained:
[1] = system: Aspergillus flavus (ATCC 204304); assay: Measurement of minimum inhibitory concentration (MIC), ATCC 204304; assay type: cell-based; conditions: ATCC204304; Aspergillus flavus ATCC 204304, 35° C., 48 hours
Procedure: (§1) New streaks are made with glycerol stock solution of the strains of Aspergillus fumigatus (ATCC MYA-4609/AF 293/CBS 101355) on Sabouraud's dextrose agar (SDA), incubate at 35° C. and a humidity of 40-70% for 72 hours. Other strains are processed as the same as AF293.
(§2) RPMI1640: one packet of RPMI1640 powder is dissolved in 1 L purified water and mixed well, add 0.165M MOPS, adjust the pH to 7.0, sterilize by filtration with 0.22 um membrane, and store at 4° C. for no more than 3 months.
(§3) Physiological saline: weigh 9 g of sodium chloride powder and dissolve in 1 L of purified water, and mixed well. Sterilize at 121° C. for 30 min, store at room temperature (RT) for no more than 1 week.
(§4) Dissolve the test compound and stock solution of one control compound with DMSO and obtain solutions at a concentration of 12.8 mg/mL
(§5) The maximum concentration of each compound is 0.8 mg/mL (e.g., 150 μL of dimethyl sulfoxide+10 uL of 12.8 mg/mL compound/control). Column 1 is filled with 40 μL of compound and columns 2 to 11 with 20 μL of dimethyl sulfoxide. Transfer 20 μL of compound from column 1 to column 2 to dilute the concentration. Repeat the above steps up to column 11 to give 2× serial dilutions.
(§6) 2 μL of the above 2× serial dilutions are injected into each hole of the corresponding test plate using a multichannel pipette.
(§7) Drop 5 ml of saline on the Aspergillus fumigatus SDA plate. The spores were carefully wiped off from the surface of the plate with an L-shaped coating rod. Then the suspension is transferred into a sterile tube. After shaking, let the tube stand for 5 to 10 minutes. Count the number of spores in the upper suspension with a hemocytometer and check the purity. Adjust the inoculum concentration to 0.2-2.5×10^4 spores/mL.
(§8) Inject 198 μL of diluted inoculum into each holes of the corresponding test plate using a multichannel pipette.
(§9) Incubate at 35° C. for 48 hours.
(§10) To facilitate scoring of the presence or absence of growth on the wall, a magnifying glass is used. The tested 96-well microplates were photographed and the optical density at 530 nm is read with an enzyme marker (Tecan Spark).

[2] = system: Aspergillus fumigatus (ATCC MYA-4609/AF293/CBS 101355); assay: Measurement of minimum inhibitory concentration (MIC), AF293; assay type: cell-based; conditions: CBS101355; Aspergillus fumigatus AF293, 35° C., 48 hours, RPMI1640; read-out: AF293: MIC
Procedure: as §1, §2, §3, §4, §5, §6, §7, §8, §9, §10

[3] = system: Aspergillus flavus (ATCC MYA-1004); assay: Measurement of minimum inhibitory concentration (MIC), ATCC MYA-1004; assay type: cell-based; conditions: Aspergillus flavus ATCC MYA-1004, 35° C., 48 hours
Procedure: as §1, §2, §3, §4, §5, §6, §7, §8, §9, §10

[4] = Pharmacokinetic test in SD rats, single oral administration; assay type: in vivo; conditions: SD, rat, plasma, po, 10 mg/kg, single oral administration 10 mg/kg, test compound mixed with F901318, plasma
Procedure: Pharmacokinetic study is performed on SD rats receiving single oral administration of each test compound mixed with F901318 (10 mg/kg, 3 rats per group). Test compounds and F901318 are dissolved with […]+10% solutol+85% saline, vortexed for 1-2 mins and ultra-sonicated for 5-10 mins to form a colorless clear drug solution. The animals are fasted overnight before oral administration, and resumed feeding 4 hours after administration. After oral administration, pharmacokinetic samples are collected from orbital blood of SD rats at 0.083 h, 0.25 h, 0.5 h, 1 h, 2 h, 4 h, 6 h, 8 h, and 24 h, and three whole blood samples are collected at each time point in a volume of 0.2-0.3 mL. Blood samples are placed on ice immediately after collected, and the plasma is separated by centrifugation within 15 min (centrifugation conditions: 8000 rpm, 1 min, and at room temperature).
The collected plasma is stored at −20° C. prior to analysis. Transfer 20 μL of plasma sample into an 0.5 mL EP tube, add 200 μL of working internal standard solution (blank group is without internal standard, using the same volume of solvent instead), vortex and mix for 3 min centrifuge at 13500 rpm for 10 min, take 100 μL of supernatant and analyze with LC-MS/MS.

[5] = system: Aspergillus fumigatus (ATCC-204305); assay: Measurement of minimum inhibitory concentration (MIC), ATCC 204305; assay type: cell-based; conditions: ATCC204305; Aspergillus fumigatus ATCC 204305, 35° C., 48 hours
Procedure: New streaks are made with glycerol stock solution of the strains of Aspergillus [NT] MYA-4609/AF 293/CBS 101355) on Sabouraud's dextrose agar (SDA), incubate at 35° C. and a humidity of 40-70% for 72 hours. Other strains are processed as the same as AF293. RPMI1640: one packet of RPMI1640 powder is dissolved in 1 L purified water and mixed well, add 0.165M MOPS, adjust the pH to 7.0, sterilize by filtration with 0.22 um membrane, and store at 4° C. for no more than 3 months. Physiological saline: weigh 9 g of sodium chloride powder and dissolve in 1 L of purified water, and mixed well. […] Dissolve the test compound and stock solution of one control compound with DMSO and obtain solutions at a concentration of 12.8 mg/mL The maximum concentration of each compound is 0.8 mg/mL (e.g., 150 μL of dimethyl sulfoxide+10 uL of 12.8 mg/mL compound/control). […] Repeat the above steps up to column 11 to give 2× serial dilutions. 2 μL of the above 2× serial dilutions are injected into each hole of the corresponding test plate using a multichannel pipette. Drop 5 ml of saline on the Aspergillus fumigatus SDA plate. The spores were carefully wiped off from the surface of the plate with an L-shaped coating rod. Then the suspension is transferred into a sterile tube. After shaking, let the tube stand for 5 to 10 minutes. Count the number of spores in the upper suspension with a hemocytometer and check the purity. Adjust the inoculum concentration to 0.2-2.5×10^4 spores/mL. Inject 198 μL of diluted inoculum into each holes of the corresponding test plate using a multichannel pipette. Incubate at 35° C. for 48 hours. […] To facilitate scoring of the presence or absence of growth on the wall, a magnifying glass is used. The tested 96-well microplates were photographed and the optical density at 530 nm is read with an enzyme marker (Tecan Spark).

[6] = Liver microsomal stability test, mouse; assay type: in vitro ADME; conditions: Mouse liver microsomes; for CLint scaled / half-life: 0.5 mg/mL protein, 37° C., NADPH
Procedure: (§11) • 1: Add 10 μL of working solutions of test product or reference product and 80 μL of microsomal working solution (liver microsomal protein concentration of 0.5 mg/mL) to wells of TO, T5, T10, T20, T30, T60, and NCF60, and only microsomal working solution is added to the Blank60 wells. Then the samples of Blank60, T10, T20, T30 and T60, except for TO and NCF60, are placed in a water bath set at 37° C. and incubate for approximately 10 mins; • 2: Add 300 μL of termination solution (acetonitrile solution containing 200 ng/mL tolbutamide and 200 ng/mL labetalol) to Sample TO, followed by 10 ul of NADPH regeneration system working solution; • 3: After incubation of Blank60, T5, T10, T20, T30 and T60 on incubation plates, add 10 μL of NADPH regeneration system working solution to each sample well to start the reaction, and 10 uL of 100 mM potassium phosphate buffer is add to the NCF60 sample wells; • 4: After incubation for appropriate times (e.g., 5, 10, 20, 30 and 60 mins), 300 μL of termination solution is add to each sample well of test product and reference product on Blank60, T5, T10, T20, T30, T60 and NCF60 plates, respectively, to terminate the reaction. • 5: All sample plates are shaken well and centrifuged at 4000 rpm for 20 min, take 100 μL of the supernatant of the test product or reference product, dilute in 300 μL of pure water for LC-MS/MS analysis, respectively. • 6: Data analysis, T½ and CLint(mic) (μL/min/mg) values are calculated based on the first-order elimination kinetics, and the equations of first-order elimination kinetics are: […]

[7] = Liver microsomal stability test, human; assay type: in vitro ADME; conditions: Human liver microsomes; for CLint scaled / half-life: 0.5 mg/mL protein, 37° C., NADPH
Procedure: as §11

MIC [1] [µg/mL] | MIC [2] [µg/mL] | MIC [3] [µg/mL] | AUC ([4]; read-out: AUC) [ng·h/mL] | Cmax ([4]; read-out: Cmax) [ng/mL] | Tmax ([4]; read-out: Tmax) [min] | half-life ([4]; read-out: T½ (converted)) [min] | MIC [5] [µg/mL] | CLint scaled [6] [mL/min/kg] | half-life [6] [min] | Remaining, (T = 60 min) [6] [%] | CLint scaled [7] [mL/min/kg] | half-life [7] [min] | Remaining, (T = 60 min) [7] [%] | Structure (SMILES)
0.008 (≈ 0.0152 µM) | 0.125 (≈ 0.237 µM) | 0.008 (≈ 0.0152 µM) | 18700 | 1420 | 55 | 321 | 0.016 (≈ 0.0304 µM) |  |  |  |  |  |  | Cc1cc(-c2ccccc2)c(C(=O)C(=O)Nc2ccc3c(c2)OCC2CN(c4ncc(F)cn4)CCN32)n1C (stereo not shown) [Example 3, 2-(1,5-dimethyl-3-phenyl-1H-pyrrol-2-yl)-N-(3-(5-fluoropyrimidin-2-yl)-1,2,3,4,4a,5-hexahydrobenzo[b]pyrazino[1,2-d][1,4]oxazin-8-yl)-2-oxoacetamide]
0.016 (≈ 0.0305 µM) | 0.008 (≈ 0.0152 µM) | 0.016 (≈ 0.0305 µM) |  |  |  |  | 0.03 (≈ 0.0572 µM) | 89.8 | 27.8 | 26.2 | 56.4 | 22.1 | 26.6 | Cc1cc(-c2ccccc2)c(C(=O)C(=O)Nc2ccc3c(c2)CCC2CN(c4ncc(F)cn4)CCN32)n1C (stereo not shown) [Example 32, 2-(1,5-dimethyl-3-phenyl-1H-pyrrol-2-yl)-N-(3-(5-fluoropyrimidin-2-yl)-2,3,4,4a,5,6-hexahydro-1H-pyrazino [1,2-a]quinolin-8-yl)-2-oxoacetamide]
0.016 (≈ 0.0313 µM) | 0.016 (≈ 0.0313 µM) | 0.008 (≈ 0.0157 µM) |  |  |  |  | 0.03 (≈ 0.0588 µM) | 45.9 | 54.4 | 48.5 | 31.3 | 39.9 | 34.5 | Cc1cc(-c2ccccc2)c(C(=O)C(=O)Nc2ccc3c(c2)C[C@@H]2CN(c4ncc(F)cn4)CCN32)n1C [Example 34, (R)-2-(1,5-dimethyl-3-phenyl-1H-pyrrol-2-yl)-N-(2-(5-fluoropyrimidin-2-yl)-1,2,3,4,10,10a-hexahydropyrazino [1,2-a]indol-8-yl)-2-oxoacetamide]
